Test results: paper PMC6718478, “A Comprehensive Antimicrobial Activity Evaluation of the Recombinant Microcin J25 Against the Foodborne Pathogens Salmonella and E. coli O157:H7 by Using a Matrix of Conditions” (Frontiers in Microbiology, 2019)
Positions of bridges follow the written chain, without caps; N, C: chain ends. Residues, ends and D or L forms follow the SMILES beside them.

How the values were obtained:
[1] = tested on: S. Typhimurium; test: Live/Dead BacLight viability assay; format: cell-based, Salmonella Typhimurium; details: at the MIC level, 2 h at 37°C, 5 × 10^4 CFU/mL in LB; fluorescence microscopy
Procedure: (§1) A Live/Dead BacLight Bacterial Viability Kit 7 (Molecular Probes, Inc., Eugene) was used to test bacterial viability. Briefly, 5 × 10^4 CFU/mL S. Pullorum, S. Typhimurium, and E. coli O157:H7 were inoculated into 1 mL of LB containing recombinant MccJ25 at the MIC level specific for each pathogen. Bacterial cultures were incubated at 37°C for 2 h and then incubated in the dark at ambient temperature with SYTO 9 and propidium iodide for 15 min. Bacteria were observed using a fluorescence microscope (EVOS XL Cell Imaging System).

[2] = tested on: E. coli O157:H7; test: Live/Dead BacLight viability assay; format: cell-based, Escherichia coli; details: at the MIC level, 2 h at 37°C, 5 × 10^4 CFU/mL in LB; fluorescence microscopy
Procedure: as §1

[3] = tested on: E. coli O157:H7; test: Antimicrobial activity in different growth phases, viable plate counting; format: cell-based, Escherichia coli; details: 4 × MIC, LB, plate counts, n = 6
Procedure: The effect of growth phase on the anti-Salmonella and -E. coli O157:H7 activity of recombinant MccJ25 was determined by the viable plate counting method, as described previously ([Ma et al., 2016]; [Fan et al., 2017]), with minor modifications. Cultures of the strains in the early-log phase, late-log phase and stationary phase were washed, concentrated and diluted with sterilized phosphate-buffered saline (PBS) to approximately 10^7 CFU/mL. Then, 1 mL was incubated individually in 9 mL of PBS to reach an approximate 10^6 CFU/mL final concentration. The bacterial cells were then inoculated into 5 mL of LB containing different concentrations of MccJ25 (0, 1 × MIC, 2 × MIC, and 4 × MIC). At 0, 12, 24, and 48 h post incubation, the cultures (0.1 mL) were serially diluted with PBS and plated on LB and TSA agar. The plates were incubated at 37°C overnight to count colony. Colonies were counted to determine CFU/mL. The experiment was conducted with two replicates in three independent trials.

[4] = tested on: E. coli O157:H7; test: Antimicrobial activity in biological food products (skim milk, egg yolk, mincemeat extract); format: cell-based, Escherichia coli; details: 4 × MIC, SKM, 37°C; for viable bacteria after 24 h in the three food products: SEY, SMS, data not shown
[5] = tested on: S. Pullorum; test: Thermal stability, inhibition zone read-out; format: physicochemical, Salmonella Pullorum; details: temperatures as high as 121°C for 20 min; 150 μL of 1 × MIC; Oxford cup inhibition zone on LB agar, overnight 37°C; three replicate experiments
Procedure: […] The assays were conducted as described previously ([Chen et al., 2009]; [Meng et al., 2019]), with slight modifications. LB agar inoculated with the indicator bacteria S. Pullorum (approximately 10^5 viable cells per mL) was poured over plates fitted with Oxford cups to make wells. 150 μL of 1 × MIC final concentration of recombinant MccJ25 samples previously treated under various conditions were added to the wells. The agar overlays were incubated overnight at 37°C, and the inhibition zones were recorded.

[6] = tested on: S. Pullorum; test: pH stability, inhibition zone read-out; format: physicochemical, Salmonella Pullorum; details: pH 2.0 to 9.0 for 2 h; 150 μL of 1 × MIC; Oxford cup inhibition zone on LB agar, overnight 37°C; three replicate experiments
Procedure: Assays of the antibacterial activity of recombinant MccJ25 at different temperatures (25, 37, 45, 55, 65, 75, 85, and 95°C for 20 min) and different pH values (pH 2.0, 3.0, 4.0, 5.0, 6.0, 7.0, 8.0, and 9.0 for 2 h) were performed. The assays were conducted as described previously ([Chen et al., 2009]; [Meng et al., 2019]), with slight modifications. LB agar inoculated with the indicator bacteria S. Pullorum (approximately 10^5 viable cells per mL) was poured over plates fitted with Oxford cups to make wells. 150 μL of 1 × MIC final concentration of recombinant MccJ25 samples previously treated under various conditions were added to the wells. The agar overlays were incubated overnight at 37°C, and the inhibition zones were recorded.

[7] = tested on: S. Pullorum; test: TEM of morphology and intracellular alteration; format: cell-based, Salmonella Pullorum
Procedure: For TEM sample preparation, (1) two milliliters of 2 × 10^6 cells of S. Pullorum broth cultured in the absence or presence of 1×, 2× and 4× MIC of the recombinant MccJ25 were incubated and collected at 1 h. (2) After that, approximately 2 × 10^6 S. Pullorum cells were incubated at 37°C for […] with the recombinant MccJ25 at 2 × MIC for 2, 3, and 4 h. They were then centrifuged at 5,000 × g for 5 min. Pretreatment of bacterial samples was conducted in the same way as the SEM treatment. Finally, the samples were placed in capsules containing embedding medium and heated at 70°C for approximately 9 h. Specimens were stained with uranyl acetate and alkaline lead citrate for 15 min. They were then observed by TEM (Model JEM-1230, JEOL, Japan).

[8] = tested on: IPEC-J2 cells; test: Salmonella invasion of IPEC-J2 cell monolayers; format: cell-based; details: 6 h with recombinant MccJ25, Salmonella for 2 h; plate counts, n = 9
Procedure: FIGURE S1 | Protective effects of recombinant MccJ25 against Salmonella invasion of IPEC-J2 cell monolayers. IPEC-J2 cells were cultured with or without recombinant MccJ25 for 6 h in the absence or presence of Salmonella for 2 h. The invasion of Salmonella in the IPEC-J2 cells was determined. Salmonella (mean CFU/ml ± SEMs) were determined by plate counts, and determined from three individual experiments. n = 9. Different superscript lowercase letters within each group indicate significant differences (P < 0.05).

[9] = tested on: IPEC-J2 cells; test: Salmonella-induced damage to IPEC-J2 cells (TEER, FD4, LDH); format: cell-based; details: 2 μg/mL for 6 h, Salmonella for 2 h; n = 9
Procedure: FIGURE S2 | Recombinant MccJ25 inhibited Salmonella-induced damage to IPEC-J2 cells. IPEC-J2 cells were cultured with or without recombinant MccJ25 (2 μg/mL) for 6 h in the absence or presence of Salmonella for 2 h. TEER (A), FD4 level (B), and LDH activity (C) in the IPEC-J2 cells were determined. Data are the means ± SEMs of three independent experiments, n = 9. Different superscript lowercase letters within each group indicate significant differences (P < 0.05); The asterisk denotes a significant difference in comparison with the control group (*P < 0.05, **P < 0.01).

Compound: CC[C@H](C)[C@H](NC(=O)CNC(=O)[C@@H](NC(=O)[C@H](Cc1ccccc1)NC(=O)[C@H](Cc1ccc(O)cc1)NC(=O)[C@@H]1CCC(=O)NCC(=O)NCC(=O)N[C@@H](C)C(=O)NCC(=O)N[C@@H](Cc2c[nH]cn2)C(=O)N[C@@H](C(C)C)C(=O)N2CCC[C@H]2C(=O)N1)C(C)C)C(=O)NCC(=O)N[C@H](C(=O)N1CCC[C@H]1C(=O)N[C@H](C(=O)N[C@@H](CO)C(=O)N[C@@H](Cc1ccccc1)C(=O)N[C@@H](Cc1ccc(O)cc1)C(=O)NCC(=O)O)[C@@H](C)CC)[C@@H](C)O [recombinant MccJ25, microcin J25] (GGAGHVPEYFVGIGTPISFYG-OH; lactam N-8 (inferred); C-terminus assumed)
- bactericidal activity, Live/Dead staining (SYTO 9 / propidium iodide) [1]: excellent bactericidal activity
- bactericidal activity, Live/Dead staining (SYTO 9 / propidium iodide) [2]: excellent bactericidal activity
- time to reduction to non-detectable levels ([3]; early-log phase cells): ≤ 12 h
- time to reduction to non-detectable levels ([3]; late-log phase cells): ≤ 24 h
- time to reduction to non-detectable levels ([3]; stationary phase cells): 48 h
- viable bacteria after 24 h in the three food products ([4]; inoculum 10^3 CFU/mL): no viable bacteria were detected
- viable bacteria after 24 h in the three food products ([4]; inoculum 10^4 CFU/mL): no bacteria were detected
- CFU reduction after 24 h ([4]; SEY, and SMS, inoculum 10^6 CFU/mL, plate counts, n = 6): approximately 10^3 CFU/mL
- influence of temperature on activity against S. Pullorum (thermal stability) [5]: no influence
- effect of pH on activity against S. Pullorum (pH stability) [6]: no effect
- cytoplasmic membrane integrity by TEM ([7]; 1, 2, or 4 × MIC for 1 h, 2 × 10^6 cells): significantly disrupted the membrane
- morphology and intracellular alteration by TEM ([7]; 2 × MIC for 2, 3, and 4 h): deformed small septa, invisible cytoplasmic membranes, heterogeneous electron density, electron-light regions and thinned cell walls
- S. Pullorum invasion of IPEC-J2 cells [8]: inhibited S. Pullorum invasion
- S. Pullorum-induced decrease in TEER [9]: attenuated
- S. Pullorum-induced increase in FD4 level [9]: attenuated
- S. Pullorum-induced increase in LDH level [9]: attenuated
